Reference: patent US9073903B2, “Imidazole-2,4-dione inhibitors of casein kinase 1” (Jasco Pharmaceuticals, LLC, priority 2010, dated 2015)
Read-outs that look alike come from different tables or passages of the source.

How the values were obtained:
Assay type in all cases: cell-based
Ovcar-3 cells = assay: Inhibition of Ovcar 3 cells (MTS cell proliferation); settings: for OD value 1 / OD value 2: 490 nm; for OD value 1 / OD value 2 / inhibition at 0.4 µM / inhibition at 0.8 µM / inhibition at 1.6 µM / inhibition at 3.2 µM / inhibition at 6.25 µM / inhibition at 12.5 µM / inhibition at 25 µM / inhibition at 50 µM / inhibition at 100 µM: 72 h; for inhibition at 0.4 µM / inhibition at 0.8 µM / inhibition at 1.6 µM / inhibition at 3.2 µM / inhibition at 6.25 µM / inhibition at 12.5 µM / inhibition at 25 µM / inhibition at 50 µM / inhibition at 100 µM / IC50: Homo sapiens, OVCAR-3
Experimental: Inhibition of Ovcar 3 Cells Cells: Ovcar-3 cells, ATCC Passage 4, Mycoplasma free. Medium: RPMI-1640 Medium (GIBCO Cat #22400121) supplemented with 10% fetal bovine serum (Hyclone Cat #SH30396.03). Seeding: 3,000 cells/well (100 uL) were seeded into 96-wells plate, incubated overnight at 37° C. in a humidified, 5% CO2 atmosphere. Treatment: Test compounds and Gemcitabine were prepared in a serial dilution (1:2) by culture medium. Fifty microliters (50 uL) of serially diluted solutions were added into each well. The final concentrations of the positive control and test compounds were shown in the graphs. The cells were incubated for 72 hours after addition of the test compounds. MTS: 15 uL of MTS solution (Promega Cat #G5430) was added into each well and incubated with cells for 4 hours at 37° C. in a humidified, 5% CO2 atmosphere. Measurement: Absorbance at 490 nm was measured using MD Spectramax Plus384 spectrophotometer. The regression curves were calculated by the GraphPad Prism 5 using “log(inhibitor) vs response—variable slope”.

Jurkat = assay: Cell proliferation study Jurkat
HCT116 cells = assay: Inhibition of HCT116 cells (MTS cell proliferation); settings: for OD value 1 / OD value 2: 490 nm; for OD value 1 / OD value 2 / inhibition at 0.4 µM / inhibition at 0.8 µM / inhibition at 1.6 µM / inhibition at 3.2 µM / inhibition at 6.25 µM / inhibition at 12.5 µM / inhibition at 25 µM / inhibition at 50 µM / inhibition at 100 µM: 72 h; for inhibition at 0.4 µM / inhibition at 0.8 µM / inhibition at 1.6 µM / inhibition at 3.2 µM / inhibition at 6.25 µM / inhibition at 12.5 µM / inhibition at 25 µM / inhibition at 50 µM / inhibition at 100 µM / IC50: Homo sapiens, HCT-116
Experimental: Inhibition of HCT116 Cells Cells: HCT116 cells, ATCC Passage unknown, Mycoplasma free. Medium: DMEM Medium (GIBCO Cat #11995073) supplemented with 10% fetal bovine serum (Hyclone Cat #SH30396.03). Seeding: 750 cells/well (100 μL) into 96-wells plate, incubated overnight at 37° C. in a humidified, 5% CO2 atmosphere. Treatment: Test compounds and Gemcitabine were prepared in a serial dilution (1:2) by culture medium. Fifty microliters (50 uL) of serially diluted solutions were added into each well. The final concentrations of the positive control and test compounds were shown in the graphs. The cells were incubated for 72 hours after addition of the test compounds. MTS: 15 uL of MTS solution (Promega Cat #G5430) was added into each well and incubated with cells for 4 hours at 37° C. in a humidified, 5% CO2 atmosphere. Measurement: Absorbance at 490 nm was measured using MD Spectramax Plus384 spectrophotometer. The regression curves were calculated by the GraphPad Prism 5 using “log(inhibitor) vs response—variable slope”. Calculation: % of inhibition=(ODzero ctrl−OD compound)/ODzero ctrl*100.

Compound: Nc1ccn([C@@H]2O[C@H](CO)[C@@H](O)C2(F)F)c(=O)n1 [Gemcitabine]
- OD value 1 (Ovcar-3 cells; 0.400 μM, replicate 1): 0.591
- OD value 2 (Ovcar-3 cells; 0.400 μM, replicate 2): 0.575
- OD value 1 (Ovcar-3 cells; 0.800 μM, replicate 1): 0.490
- OD value 2 (Ovcar-3 cells; 0.800 μM, replicate 2): 0.460
- OD value 1 (Ovcar-3 cells; 1.600 μM, replicate 1): 0.440
- OD value 2 (Ovcar-3 cells; 1.600 μM, replicate 2): 0.453
- OD value 1 (Ovcar-3 cells; 3.200 μM, replicate 1): 0.411
- OD value 2 (Ovcar-3 cells; 3.200 μM, replicate 2): 0.432
- OD value 1 (Ovcar-3 cells; 6.250 μM, replicate 1): 0.363
- OD value 2 (Ovcar-3 cells; 6.250 μM, replicate 2): 0.388
- OD value 1 (Ovcar-3 cells; 12.500 μM, replicate 1): 0.257
- OD value 2 (Ovcar-3 cells; 12.500 μM, replicate 2): 0.234
- OD value 1 (Ovcar-3 cells; 25.000 μM, replicate 1): 0.040
- OD value 2 (Ovcar-3 cells; 25.000 μM, replicate 2): 0.009
- OD value 1 (Ovcar-3 cells; 50.000 μM, replicate 1): 0.020
- OD value 2 (Ovcar-3 cells; 50.000 μM, replicate 2): 0.010
- OD value 1 (Ovcar-3 cells; 100.000 μM, replicate 1): 0.012
- OD value 2 (Ovcar-3 cells; 100.000 μM, replicate 2): 0.011
- inhibition at 0.4 µM (Ovcar-3 cells; 0.400 μM, replicate 1, read-out: % of inhibition 1): 1.5%
- inhibition at 0.4 µM (Ovcar-3 cells; 0.400 μM, replicate 2, read-out: % of inhibition 2): -4.93%
- inhibition at 0.8 µM (Ovcar-3 cells; 0.800 μM, replicate 1, read-out: % of inhibition 1): 18.3%
- inhibition at 0.8 µM (Ovcar-3 cells; 0.800 μM, replicate 2, read-out: % of inhibition 2): 16.1%
- inhibition at 1.6 µM (Ovcar-3 cells; 1.600 μM, replicate 1, read-out: % of inhibition 1): 26.6%
- inhibition at 1.6 µM (Ovcar-3 cells; 1.600 μM, replicate 2, read-out: % of inhibition 2): 17.4%
- inhibition at 3.2 µM (Ovcar-3 cells; 3.200 μM, replicate 1, read-out: % of inhibition 1): 31.5%
- inhibition at 3.2 µM (Ovcar-3 cells; 3.200 μM, replicate 2, read-out: % of inhibition 2): 21.2%
- inhibition at 6.25 µM (Ovcar-3 cells; 6.250 μM, replicate 1, read-out: % of inhibition 1): 39.5%
- inhibition at 6.25 µM (Ovcar-3 cells; 6.250 μM, replicate 2, read-out: % of inhibition 2): 29.2%
- inhibition at 12.5 µM (Ovcar-3 cells; 12.500 μM, replicate 1, read-out: % of inhibition 1): 57.2%
- inhibition at 12.5 µM (Ovcar-3 cells; 12.500 μM, replicate 2, read-out: % of inhibition 2): 57.3%
- inhibition at 25 µM (Ovcar-3 cells; 25.000 μM, replicate 1, read-out: % of inhibition 1): 93.4%
- inhibition at 25 µM (Ovcar-3 cells; 25.000 μM, replicate 2, read-out: % of inhibition 2): 98.4%
- inhibition at 50 µM (Ovcar-3 cells; 50.000 μM, replicate 1, read-out: % of inhibition 1): 96.7%
- inhibition at 50 µM (Ovcar-3 cells; 50.000 μM, replicate 2, read-out: % of inhibition 2): 98.1%
- inhibition at 100 µM (Ovcar-3 cells; 100.000 μM, replicate 1, read-out: % of inhibition 1): 98%
- inhibition at 100 µM (Ovcar-3 cells; 100.000 μM, replicate 2, read-out: % of inhibition 2): 98%
- IC50 (Ovcar-3 cells; Table 18, read-out: OVCAR-3* 50% inhibition concentration): 11.2 µM
- IC50 (Ovcar-3 cells; Table 26, Ovcar3, 72 hours, read-out: 50% viability conc.): 11.2 µM
- IC50 (Ovcar-3 cells; Table 26, Ovcar3, 72 hours, read-out: IC50): 9.87 µM
- Maximal inhibition % (Ovcar-3 cells; Table 26, Ovcar3, 72 hours): 98%
- Jurkat‡ % at 10 μM (Jurkat): 3.2%
- OD value 1 (HCT116 cells; 0.400 uM, replicate 1): 0.799
- OD value 2 (HCT116 cells; 0.400 uM, replicate 2): 0.766
- OD value 1 (HCT116 cells; 0.800 uM, replicate 1): 0.619
- OD value 2 (HCT116 cells; 0.800 uM, replicate 2): 0.723
- OD value 1 (HCT116 cells; 1.600 uM, replicate 1): 0.452
- OD value 2 (HCT116 cells; 1.600 uM, replicate 2): 0.535
- OD value 1 (HCT116 cells; 3.200 uM, replicate 1): 0.083
- OD value 2 (HCT116 cells; 3.200 uM, replicate 2): 0.083
- OD value 1 (HCT116 cells; 6.250 uM, replicate 1): 0.076
- OD value 2 (HCT116 cells; 6.250 uM, replicate 2): 0.065
- OD value 1 (HCT116 cells; 12.500 uM, replicate 1): 0.065
- OD value 2 (HCT116 cells; 12.500 uM, replicate 2): 0.063
- OD value 1 (HCT116 cells; 25.000 uM, replicate 1): 0.075
- OD value 2 (HCT116 cells; 25.000 uM, replicate 2): 0.061
- OD value 1 (HCT116 cells; 50.000 uM, replicate 1): 0.036
- OD value 2 (HCT116 cells; 50.000 uM, replicate 2): 0.046
- OD value 1 (HCT116 cells; 100.000 uM, replicate 1): 0.037
- OD value 2 (HCT116 cells; 100.000 uM, replicate 2): 0.037
- inhibition at 0.4 µM (HCT116 cells; 0.400 uM, replicate 1, read-out: % of inhibition 1): 18.8%
- inhibition at 0.4 µM (HCT116 cells; 0.400 uM, replicate 2, read-out: % of inhibition 2): 20.9%
- inhibition at 0.8 µM (HCT116 cells; 0.800 uM, replicate 1, read-out: % of inhibition 1): 37.2%
- inhibition at 0.8 µM (HCT116 cells; 0.800 uM, replicate 2, read-out: % of inhibition 2): 25.3%
- inhibition at 1.6 µM (HCT116 cells; 1.600 uM, replicate 1, read-out: % of inhibition 1): 54.1%
- inhibition at 1.6 µM (HCT116 cells; 1.600 uM, replicate 2, read-out: % of inhibition 2): 44.7%
- inhibition at 3.2 µM (HCT116 cells; 3.200 uM, replicate 1, read-out: % of inhibition 1): 91.6%
- inhibition at 3.2 µM (HCT116 cells; 3.200 uM, replicate 2, read-out: % of inhibition 2): 91.4%
- inhibition at 6.25 µM (HCT116 cells; 6.250 uM, replicate 1, read-out: % of inhibition 1): 92.3%
- inhibition at 6.25 µM (HCT116 cells; 6.250 uM, replicate 2, read-out: % of inhibition 2): 93.3%
- inhibition at 12.5 µM (HCT116 cells; 12.500 uM, replicate 1, read-out: % of inhibition 1): 93.4%
- inhibition at 12.5 µM (HCT116 cells; 12.500 uM, replicate 2, read-out: % of inhibition 2): 93.5%
- inhibition at 25 µM (HCT116 cells; 25.000 uM, replicate 1, read-out: % of inhibition 1): 92.4%
- inhibition at 25 µM (HCT116 cells; 25.000 uM, replicate 2, read-out: % of inhibition 2): 93.7%
- inhibition at 50 µM (HCT116 cells; 50.000 uM, replicate 1, read-out: % of inhibition 1): 96.4%
- inhibition at 50 µM (HCT116 cells; 50.000 uM, replicate 2, read-out: % of inhibition 2): 95.2%
- inhibition at 100 µM (HCT116 cells; 100.000 uM, replicate 1, read-out: % of inhibition 1): 96.3%
- inhibition at 100 µM (HCT116 cells; 100.000 uM, replicate 2, read-out: % of inhibition 2): 96.2%
- IC50 (HCT116 cells; Table 17, read-out: HCT-116* 50% inhibition concentration): 1.29 µM
- IC50 (HCT116 cells; Table 26, HCT116, 72 hours, read-out: 50% viability conc.): 1.29 µM
- IC50 (HCT116 cells; Table 26, HCT116, 72 hours, read-out: IC50): 1.42 µM
- Maximal inhibition % (HCT116 cells; Table 26, HCT116, 72 hours): 96.25%
